Data as given in ChEMBL document CHEMBL5052831, “Serpin inhibitors for the treatment of prion and prion-like diseases” (2021).

system: ScGT1; assay: Inhibition of SERPINA3N in mouse GT1 cells chronically infected with RML prion (ScGT1) assessed as reduction of PrPSc levels measured by western blot analysis; format: cell-based; set-up: concentration or dose not given beside the values

| Structure (SMILES) | Activity [%] |
| --- | --- |
| Cc1ccc(-n2ncc(C(=O)C3CCN(C(=O)c4scnc4C)CC3)c2N)cc1 | 50 |
| CC(=O)N1CCC(C(=O)c2cnn(-c3cccc(F)c3)c2N)CC1 | 50 |
| Cc1ccc(-n2ncc(C(=O)C3CCN(C(=O)C4CCC4)C3)c2N)cc1 (configuration not stated) | 50 |
| Cc1n[nH]c(C)c1CNC(=O)c1cnn(-c2ccc(F)cc2)c1 | 50 |
| Nc1c(C(=O)c2c[nH]c3ccccc23)cnn1-c1ccccc1 | 50 |
| O=C(NC1CCCOC1)c1cnn(-c2ccc(F)cc2)c1 (configuration not stated) | 50 |
| Nc1c(C(=O)C2CCN(C(=O)c3ccno3)CC2)cnn1-c1ccccc1 | 50 |
